This passage reports IC50 results from US11707462B2, “Checkpoint kinase 1 (CHK1) inhibitors and uses thereof” (Boundless Bio, Inc., priority 2021, dated 2023).

The experiment deals with T1, Full-length human Chk1 protein (Homo sapiens, UniProt O14757).
T1 construct: purchased Carna Biosciences, Inc. 02-117
T1 sequence (O14757 1-476): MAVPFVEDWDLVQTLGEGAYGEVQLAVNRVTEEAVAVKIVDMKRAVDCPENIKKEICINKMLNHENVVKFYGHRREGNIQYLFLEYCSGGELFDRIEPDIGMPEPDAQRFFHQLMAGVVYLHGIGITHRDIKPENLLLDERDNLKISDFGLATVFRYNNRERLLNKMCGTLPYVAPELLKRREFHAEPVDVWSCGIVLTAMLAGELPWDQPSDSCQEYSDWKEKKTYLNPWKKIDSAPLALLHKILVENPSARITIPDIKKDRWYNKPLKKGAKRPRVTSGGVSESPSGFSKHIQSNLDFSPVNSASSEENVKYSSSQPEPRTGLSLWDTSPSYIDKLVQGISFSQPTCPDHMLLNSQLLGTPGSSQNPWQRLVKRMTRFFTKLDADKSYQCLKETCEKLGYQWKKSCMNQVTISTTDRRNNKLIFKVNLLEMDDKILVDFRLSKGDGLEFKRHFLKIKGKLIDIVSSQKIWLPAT
Briefly: Kinase HTRF biochemical assay (HTRF KinEASE), Chk1 enzyme activity. The note with it: full-length human Chk1, ATP 1 mM, 60 minutes at room temperature. As for the experimental part:
Example A: Kinase HTRF Biochemical Assay
Chk1 enzyme activity was measured using an HTRF KinEASE assay (Cisbio, catalog no. 62ST1PEC). Full-length human Chk1 protein (GenBank accession number NP_001265.1) was obtained from Carna Biosciences, Inc. (Kobe, Japan, catalog no. 02-117). The enzyme reaction was carried out in assay buffer containing (final concentrations): Chk1 enzyme (0.012 ng/μL), MgCl2 (5 mM) and DTT (1 mM). To determine compound dose response, DMSO stock solutions were serially diluted in a 10-point concentration series in duplicate. Compound solution (50 nL) was added to 384-well assay plates (Greiner, catalog no. 784075). To each well containing compound solution was added assay buffer solution (5 μL). Plates were centrifuged at 1000 rpm for 1 minute, then incubated at room temperature for 10 minutes. The reaction was started by addition of substrate buffer (5 μL/well) containing (final concentrations): STK substrate 1-biotin (120 nM) and ATP (1 mM). Assay plates were centrifuged at 1000 rpm for 1 minute, then incubated at room temperature for 60 minutes. The reaction was stopped by addition of detection buffer (Cisbio, 10 μL) containing (final concentrations): STK antibody-cryptate (0.25 nM) and streptavidin-XL665 (7.5 nM). Plates were centrifuged at 1000 rpm for 1 minute, then incubated at 25° C. for 2 hours. HTRF signal was read on an EnVision multimode plate reader […] in HTRF mode. Data were fit to dose-response curves using XLfit (IDBS, Surrey, UK) or Prism (GraphPad Software, La Jolla, Calif., US) to calculate IC50 values for each compound tested.
The compound `COc1cccc(O[C@@H]2CCC[C@H](N)C2)c1-c1cc(Nc2cnc(C#N)cn2)n[nH]1` (relative stereo) [Example 1-66] gave an IC50 above 1000 nM. In the case of `COc1cccc(OC[C@H]2C[C@@H](N)C2)c1-c1cc(Nc2cnc(C#N)cn2)n[nH]1` [Example 1-2, 5-((5-(2-(((1s,3s)-3-aminocyclobutyl)methoxy)-6-methoxyphenyl)-1H-pyrazol-3-yl)amino)pyrazine-2-carbonitrile] it was above 1000 nM; in that of `COc1cccc(OC[C@H]2C[C@H](N)C2)c1-c1cc(Nc2cnc(C#N)cn2)n[nH]1` [Example 1-3], above 1000 nM. On to `COc1cccc(O[C@H]2CC[C@H](N)C2)c1-c1cc(Nc2cnc(C#N)cn2)n[nH]1` [Example 1-6, 5-((5-(2-(((1S,3S)-3-aminocyclopentyl)oxy)-6-methoxyphenyl)-1H-pyrazol-3-yl)amino)pyrazine-2-carbonitrile], for which the half-inhibitory concentration (IC50) is above 1000 nM. In the case of `CC(C)Oc1cccc(O[C@H]2C[C@H](N)C2)c1-c1cc(Nc2cnc(C#N)cn2)n[nH]1` [Example 1-15, 5-((5-(2-((1r,3r)-3-aminocyclobutoxy)-6-isopropoxyphenyl)-1H-pyrazol-3-yl)amino)pyrazine-2-carbonitrile] it was 100 to 500 nM. `CC(C)Oc1cccc(O[C@H]2CC[C@H](N)CC2)c1-c1cc(Nc2cnc(C#N)cn2)n[nH]1` [Example 1-18, 5-((5-(2-(((1r,4r)-4-aminocyclohexyl)oxy)-6-isopropoxyphenyl)-1H-pyrazol-3-yl)amino)pyrazine-2-carbonitrile] yielded an IC50 of 100 to 500 nM. `CC(C)Oc1cccc(O[C@@H]2CC[C@H](N)C2)c1-c1cc(Nc2cnc(C#N)cn2)n[nH]1` [Example 1-24, 5-((5-(2-(((1R,3S)-3-aminocyclopentyl)oxy)-6-isopropoxyphenyl)-1H-pyrazol-3-yl)amino)pyrazine-2-carbonitrile] came in with an IC50 above 1000 nM. In the case of `N#Cc1cnc(Nc2cc(-c3c(OCC(F)(F)F)cccc3O[C@@H]3CC[C@H](N)C3)[nH]n2)cn1` [Example 1-25, 5-((5-(2-(((1R,3S)-3-aminocyclopentyl)oxy)-6-(2,2,2-trifluoroethoxy)phenyl)-1-pyrazol-3-yl)amino)pyrazine-2-carbonitrile] it was 500 to 1000 nM. In the case of `COCc1cccc(O[C@@H]2CC[C@H](N)C2)c1-c1cc(Nc2cnc(C#N)cn2)n[nH]1` [Example 1-30, 5-((5-(2-(((1R,3S)-3-aminocyclopentyl)oxy)-6-(methoxymethyl)phenyl)-1H-pyrazol-3-yl)amino)pyrazine-2-carbonitrile] it was above 1000 nM. Take `N#Cc1cnc(Nc2cc(-c3c(OCC4CC4)cccc3O[C@H]3CC[C@H](N)CC3)[nH]n2)cn1` [Example 1-31, 5-((5-(2-(((1r,4r)-4-aminocyclohexyl)oxy)-6-(cyclopropylmethoxy)phenyl)-1H-pyrazol-3-yl)amino)pyrazine-2-carbonitrile]: the IC50 was 100 to 500 nM. With `N#Cc1cnc(Nc2cc(-c3c(OCC4CC4)cccc3O[C@@H]3CC[C@H](N)C3)[nH]n2)cn1` [Example 1-33, 5-((5-(2-(((1R,3S)-3-aminocyclopentyl)oxy)-6-(cyclopropylmethoxy)phenyl)-1H-pyrazol-3-yl)amino)pyrazine-2-carbonitrile] the figure was 100 to 500 nM; with `N#Cc1cnc(Nc2cc(-c3c(OC4CCC4)cccc3O[C@H]3CC[C@H](N)CC3)[nH]n2)cn1` [Example 1-34, 5-((5-(2-(((1r,4r)-4-aminocyclohexyl)oxy)-6-cyclobutoxyphenyl)-1H-pyrazol-3-yl)amino)pyrazine-2-carbonitrile], 100 to 500 nM. In the case of `N#Cc1cnc(Nc2cc(-c3c(OC4CCC4)cccc3O[C@H]3C[C@H](N)C3)[nH]n2)cn1` [Example 1-35, 5-((5-(2-((1r,3r)-3-aminocyclobutoxy)-6-cyclobutoxyphenyl)-1H-pyrazol-3-yl)amino)pyrazine-2-carbonitrile] it was 100 to 500 nM; in that of `N#Cc1cnc(Nc2cc(-c3c(OC4CCC4)cccc3O[C@@H]3CC[C@H](N)C3)[nH]n2)cn1` [Example 1-36, 5-((5-(2-(((1R,3S)-3-aminocyclopentyl)oxy)-6-cyclobutoxyphenyl)-1H-pyrazol-3-yl)amino)pyrazine-2-carbonitrile], 100 to 500 nM; in that of `N#Cc1cnc(Nc2cc(-c3ccccc3OC3CC4(CC(N)C4)C3)[nH]n2)cn1` (stereo not drawn) [Example 1-54, 5-((5-(2-((6-aminospiro[3.3]heptan-2-yl)oxy)phenyl)-1H-pyrazol-3-yl)amino)pyrazine-2-carbonitrile], 10 to 100 nM. In the case of `COc1cccc(O[C@@H]2CCC[C@@H](N)C2)c1-c1cc(Nc2cnc(C#N)cn2)n[nH]1` [Example 1-64, 5-((5-(2-(((1R,3R)-3-aminocyclohexyl)oxy)-6-methoxyphenyl)-1H-pyrazol-3-yl)amino)pyrazine-2-carbonitrile] it was above 1000 nM.

In turn, `COc1cccc(O[C@H]2CCC[C@H](N)C2)c1-c1cc(Nc2cnc(C#N)cn2)n[nH]1` [Example 1-65, 5-[[5-[2-[(1S,3S)-3-aminocyclohexoxy]-6-methoxy-phenyl]-1H-pyrazol-3-yl]amino]pyrazine-2-carbonitrile] gave an IC50 above 1000 nM. In turn, `COc1cccc(O[C@H]2CC[C@H]2N)c1-c1cc(Nc2cnc(C#N)cn2)n[nH]1` [Example 3-3, 5-((5-(2-((1S,2R)-2-aminocyclobutoxy)-6-methoxyphenyl)-1H-pyrazol-3-yl)amino)pyrazine-2-carbonitrile] came in with an IC50 of 100 to 500 nM. As to `COc1cccc(O[C@@H]2CC[C@@H]2N)c1-c1cc(Nc2cnc(C#N)cn2)n[nH]1` [Example 3-4, 5-((5-(2-((1R,2S)-2-aminocyclobutoxy)-6-methoxyphenyl)-1H-pyrazol-3-yl)amino)pyrazine-2-carbonitrile], the IC50 is 10 to 100 nM. In the case of `COc1cccc(O[C@@H]2CCCC[C@@H](N)C2)c1-c1cc(Nc2cnc(C#N)cn2)n[nH]1` [Example 3-6, 5-((5-(2-(((1R,3R)-3-aminocycloheptyl)oxy)-6-methoxyphenyl)-1H-pyrazol-3-yl)amino)pyrazine-2-carbonitrile] it was 100 to 500 nM; in that of `COc1cccc(O[C@H]2CCCC[C@@H](N)C2)c1-c1cc(Nc2cnc(C#N)cn2)n[nH]1` [Example 3-9, 5-((5-(2-(((1S,3R)-3-aminocycloheptyl)oxy)-6-methoxyphenyl)-1H-pyrazol-3-yl)amino)pyrazine-2-carbonitrile], 10 to 100 nM; in that of `Cc1cc(-c2cc(Nc3cnc(C#N)cn3)n[nH]2)c(O[C@@H]2CC[C@H](N)C2)cc1F` [Example 3-17, 5-((5-(2-(((1R,3S)-3-aminocyclopentyl)oxy)-4-fluoro-5-methylphenyl)-1H-pyrazol-3-yl)amino)pyrazine-2-carbonitrile], 10 to 100 nM. Take `CN[C@@H]1CC[C@@H](Oc2ccc(Cl)c(F)c2-c2cc(Nc3cnc(C(N)=O)cn3)n[nH]2)C1` [Example 3-23, 5-((5-(3-chloro-2-fluoro-6-(((1R,3R)-3-(methylamino)cyclopentyl)oxy)phenyl)-1H-pyrazol-3-yl)amino)pyrazine-2-carboxamide]: the IC50 was above 1000 nM. `N#Cc1cnc(Nc2cc(-c3c(F)cccc3O[C@H]3CC[C@@H]3N)[nH]n2)cn1` [Example 3-31, 5-((5-(2-((1S,2S)-2-aminocyclobutoxy)-6-fluorophenyl)-1H-pyrazol-3-yl)amino)pyrazine-2-carbonitrile] gave a concentration for half-maximal inhibition (IC50) of 100 to 500 nM. As for `N#Cc1cnc(Nc2cc(-c3c(F)cccc3O[C@@H]3CC[C@@H]3N)[nH]n2)cn1` [Example 3-32, 5-((5-(2-((1R,2S)-2-aminocyclobutoxy)-6-fluorophenyl)-1H-pyrazol-3-yl)amino)pyrazine-2-carbonitrile], the IC50 lay within 10 to 100 nM.

In the case of `N#Cc1cnc(Nc2cc(-c3c(F)cccc3O[C@H]3CC[C@H]3N)[nH]n2)cn1` [Example 3-34, 5-((5-(2-((1S,2R)-2-aminocyclobutoxy)-6-fluorophenyl)-1H-pyrazol-3-yl)amino)pyrazine-2-carbonitrile], the concentration for half-maximal inhibition (IC50) was above 1000 nM. As to `N#Cc1cnc(Nc2cc(-c3c(F)cccc3O[C@H]3CCCC[C@@H](N)C3)[nH]n2)cn1` [Example 3-36, 5-((5-(2-(((1S,3R)-3-aminocycloheptyl)oxy)-6-fluorophenyl)-1H-pyrazol-3-yl)amino)pyrazine-2-carbonitrile], the IC50 is at most 10 nM.
